According to ChEMBL document CHEMBL1145390, “Synthesis and preliminary biological characterization of new semisynthetic derivatives of ramoplanin” (J Med Chem, 2007):
Values after ≈ are worked out from the molar mass of the structure shown.

Key:
Streptococcus pyogenes = experiment: Antibacterial activity against Streptococcus pyogenes C203 after 24 hrs by broth microdilution method; format: functional; conditions: C203, 24 h, read-out: MIC
Enterococcus faecalis [1] = experiment: Antibacterial activity against vancomycin A-resistant Enterococcus faecalis after 24 hrs by broth microdilution method; format: functional; conditions: read-out: MIC
Enterococcus faecalis [2] = experiment: Antibacterial activity against Enterococcus faecalis after 24 hrs by broth microdilution method; format: functional; conditions: read-out: MIC
Enterococcus faecium [3] = experiment: Antibacterial activity against Enterococcus faecium after 24 hrs by broth microdilution method; format: functional; conditions: read-out: MIC
Staphylococcus aureus [4] = experiment: Antibacterial activity against methicillin-resistant and vancomycin-intermediate resistant Staphylococcus aureus clinical isolate after 24 hrs by broth microdilution method; format: functional; conditions: read-out: MIC
Staphylococcus aureus [5] = experiment: Antibacterial activity against vancomycin-intermediate resistant Staphylococcus aureus clinical isolate after 24 hrs by broth microdilution method; format: functional
Enterococcus faecium [6] = experiment: Antibacterial activity against vancomycin A-resistant Enterococcus faecium clinical isolate after 24 hrs by broth microdilution method; format: functional; conditions: read-out: MIC
[7] = Toxicity assessed as hemolysis in erythrocytes at 90 mg/L; format: cell-based, Erythrocyte; conditions: human, erythrocytes; read-out: Activity
[8] = Toxicity assessed as hemolysis in erythrocytes at 180 mg/L; format: cell-based, Erythrocyte; conditions: human, erythrocytes; read-out: Activity
Staphylococcus aureus [9] = experiment: Antibacterial activity against methicillin-resistant Staphylococcus aureus clinical isolate after 24 hrs by broth microdilution method; format: functional; conditions: read-out: MIC
Escherichia coli = experiment: Antibacterial activity against Escherichia coli SKF-12140 after 24 hrs by broth microdilution method; format: functional; conditions: read-out: MIC
Staphylococcus aureus [10] = experiment: Antibacterial activity against Staphylococcus aureus Smith after 24 hrs by broth microdilution method; format: functional; conditions: read-out: MIC
Candida albicans = experiment: Antifungal activity against Candida albicans SKF-2270 after 24 hrs by broth microdilution method; format: functional; conditions: read-out: MIC

SMILES | MIC (Streptococcus pyogenes) | MIC (Enterococcus faecalis [1]) | MIC (Enterococcus faecalis [2]) | MIC (Enterococcus faecium [3]) | MIC (Staphylococcus aureus [4]) | MIC (Staphylococcus aureus [5]) | MIC (Enterococcus faecium [6]) | hemolysis at 90 mg/L [7] | hemolysis at 180 mg/L [8] | MIC (Staphylococcus aureus [9]) | MIC (Escherichia coli) | MIC (Staphylococcus aureus [10]) | MIC (Candida albicans)
CC(C)C[C@@H]1NC(=O)CNC(=O)[C@H](c2ccc(O)cc2)NC(=O)[C@@H]([C@@H](C)O)NC(=O)[C@H](c2ccc(O[C@H]3O[C@H](CO)[C@@H](O)[C@H](O)[C@@H]3O[C@H]3O[C@H](CO)[C@@H](O)[C@H](O)[C@@H]3O)cc2)NC(=O)[C@@H](CCCN)NC(=O)[C@H](Cc2ccccc2)NC(=O)[C@H]([C@@H](C)O)NC(=O)[C@@H](c2ccc(O)cc2)NC(=O)[C@H](c2ccc(O)cc2)NC(=O)[C@@H](C(C)C)NC(=O)[C@@H](CCCN)NC(=O)[C@@H](c2ccc(O)cc2)NC(=O)[C@@H](CNC(=O)[C@H](CC(N)=O)NC(=O)COc2ccccc2)[C@@H](C(N)=O)OC(=O)[C@H](c2ccc(O)c(Cl)c2)NC(=O)[C@@H](C)NC1=O | 0.06 µg/mL (≈ 0.0234 µM) | 4 µg/mL (≈ 1.56 µM) | 8 µg/mL (≈ 3.12 µM) | 4 µg/mL (≈ 1.56 µM) | 32 µg/mL (≈ 12.5 µM) | 16 µg/mL (≈ 6.24 µM) | 4 µg/mL (≈ 1.56 µM) | 0% | 0% | 8 µg/mL (≈ 3.12 µM) | > 32 µg/mL | 4 µg/mL (≈ 1.56 µM) | > 32 µg/mL
CC(C)C[C@@H]1NC(=O)CNC(=O)[C@H](c2ccc(O)cc2)NC(=O)[C@@H]([C@@H](C)O)NC(=O)[C@H](c2ccc(O[C@H]3O[C@H](CO)[C@@H](O)[C@H](O)[C@@H]3O[C@H]3O[C@H](CO)[C@@H](O)[C@H](O)[C@@H]3O)cc2)NC(=O)[C@@H](CCCN)NC(=O)[C@H](Cc2ccccc2)NC(=O)[C@H]([C@@H](C)O)NC(=O)[C@@H](c2ccc(O)cc2)NC(=O)[C@H](c2ccc(O)cc2)NC(=O)[C@@H](C(C)C)NC(=O)[C@@H](CCCN)NC(=O)[C@@H](c2ccc(O)cc2)NC(=O)[C@@H](CNC(=O)[C@H](CC(N)=O)NC(=O)Cc2ccc3ccccc3c2)[C@@H](C(N)=O)OC(=O)[C@H](c2ccc(O)c(Cl)c2)NC(=O)[C@@H](C)NC1=O.Cl | ≤ 0.03 µg/mL | 0.125 µg/mL | 0.125 µg/mL | 0.25 µg/mL | 1 µg/mL | 1 µg/mL | 0.25 µg/mL | 24% | 59% | 0.25 µg/mL | > 32 µg/mL | 0.25 µg/mL | > 32 µg/mL
Cc1ccc(C(=O)N[C@@H](CC(N)=O)C(=O)NC[C@@H]2C(=O)N[C@H](c3ccc(O)cc3)C(=O)N[C@H](CCCN)C(=O)N[C@H](C(C)C)C(=O)N[C@@H](c3ccc(O)cc3)C(=O)N[C@H](c3ccc(O)cc3)C(=O)N[C@@H]([C@@H](C)O)C(=O)N[C@@H](Cc3ccccc3)C(=O)N[C@H](CCCN)C(=O)N[C@@H](c3ccc(O[C@H]4O[C@H](CO)[C@@H](O)[C@H](O)[C@@H]4O[C@H]4O[C@H](CO)[C@@H](O)[C@H](O)[C@@H]4O)cc3)C(=O)N[C@H]([C@@H](C)O)C(=O)N[C@@H](c3ccc(O)cc3)C(=O)NCC(=O)N[C@@H](CC(C)C)C(=O)N[C@H](C)C(=O)N[C@@H](c3ccc(O)c(Cl)c3)C(=O)O[C@@H]2C(N)=O)cc1 | < 0.03 µg/mL | 2 µg/mL (≈ 0.785 µM) | 2 µg/mL (≈ 0.785 µM) | 4 µg/mL (≈ 1.57 µM) | 4 µg/mL (≈ 1.57 µM) | 8 µg/mL (≈ 3.14 µM) | 2 µg/mL (≈ 0.785 µM) | 5% | 3% | 4 µg/mL (≈ 1.57 µM) | > 32 µg/mL | 4 µg/mL (≈ 1.57 µM) | > 32 µg/mL
CCc1ccc(C(=O)N[C@@H](CC(N)=O)C(=O)NC[C@@H]2C(=O)N[C@H](c3ccc(O)cc3)C(=O)N[C@H](CCCN)C(=O)N[C@H](C(C)C)C(=O)N[C@@H](c3ccc(O)cc3)C(=O)N[C@H](c3ccc(O)cc3)C(=O)N[C@@H]([C@@H](C)O)C(=O)N[C@@H](Cc3ccccc3)C(=O)N[C@H](CCCN)C(=O)N[C@@H](c3ccc(O[C@H]4O[C@H](CO)[C@@H](O)[C@H](O)[C@@H]4O[C@H]4O[C@H](CO)[C@@H](O)[C@H](O)[C@@H]4O)cc3)C(=O)N[C@H]([C@@H](C)O)C(=O)N[C@@H](c3ccc(O)cc3)C(=O)NCC(=O)N[C@@H](CC(C)C)C(=O)N[C@H](C)C(=O)N[C@@H](c3ccc(O)c(Cl)c3)C(=O)O[C@@H]2C(N)=O)cc1 | < 0.03 µg/mL | 1 µg/mL (≈ 0.39 µM) | 1 µg/mL (≈ 0.39 µM) | 1 µg/mL (≈ 0.39 µM) | 4 µg/mL (≈ 1.56 µM) | > 32 µg/mL | 1 µg/mL (≈ 0.39 µM) | 36% | 62% | 1 µg/mL (≈ 0.39 µM) | > 32 µg/mL | 0.5 µg/mL (≈ 0.195 µM) | > 32 µg/mL
